Results: patent US8349867B2, “Quinoline compounds, intermediates, preparation methods and uses thereof” (Shanghai Institute of Pharmaceutical Industry, priority 2006, dated 2013)

Row | SMILES | melting point
1 | O=C1C[C@H](O)C[C@@H](/C=C/c2cnc3ccccc3c2Sc2ccc(F)cc2)O1 [Compound A2] | 130 to 132 °C
2 | CC(C)c1ccc(Sc2c(/C=C/[C@@H]3C[C@@H](O)CC(=O)O3)cnc3ccccc23)cc1 [Compound A4] | 147 to 148 °C
3 | CC(C)c1ccc(Sc2c(/C=C/[C@@H]3C[C@@H](O)CC(=O)O3)cnc3cc(Cl)c(F)cc23)cc1 [Compound A12] | 175 to 177 °C
4 | COc1cccc(Sc2cc3ncc(/C=C/[C@@H]4C[C@@H](O)CC(=O)O4)c(Sc4cccc(OC)c4)c3cc2Sc2cccc(OC)c2)c1 [Compound A31] | 57 to 59 °C
5 | CC(C)c1ccc(Sc2cc3ncc(/C=C/[C@@H]4C[C@@H](O)CC(=O)O4)c(Sc4ccc(C(C)C)cc4)c3cc2Sc2ccc(C(C)C)cc2)cc1 [Compound A32] | 182 to 184 °C
